In US20220402948A1, “EGFR INHIBITOR, COMPOSITION AND PREPARATION METHOD THEREFOR” (BETTA PHARMACEUTICALS CO., LTD., priority 2019, published 2022) one finds IC50 data, which are given here for 18 compounds.

pIC50: −log10 of the molar value.

Assay type in all cases: biochemical
One assay deals with EGFRΔ19del/T790M/C797S (Homo sapiens, UniProt P00533, T790M/C797S, form not given). Description: EGFR Δ19del/T790M/C797S kinase test (mobility variation analysis, Caliper EZ Reader). Particulars: kinase enzymatic activity, Table 1. As for the experimental part: (§1) Mobility variation analysis was performed to determine the affinity of the compound for EGFRΔ19del/T790M/C797S, EGFR WT and IGF1R. The enzymatic reaction scheme is as follows:
(§2) 1. Prepare 1*kinase buffer as follows.
(§3) 3. […] Prepare 2.5-fold final concentration of kinase solution with 1×Kinase buffer.
(§4) 4. Add 10 μL of 2.5-fold final concentration of kinase solution to the compound well and the positive control well; add 10 μL of 1×Kinase buffer to the negative control well.
(§5) 5. Centrifuge at 1000 rpm for 30 s, shake the reaction plate for well mixing, and then incubate at room temperature for 10 minutes.
(§6) 6. Prepare a mixture of ATP and Kinase substrate at 5/3-fold final concentration with 1×Kinase buffer.
(§7) 8. Centrifuge the 384-well plate at 1000 rpm for 30 s, shake it well and then incubate it at room temperature for corresponding time.
(§8) 9. Add 30 μL of stop detection solution to stop the kinase reaction, centrifuge at 1000 rpm for 30 s, and shake it well.
(§9) 10. Read conversion rate with Caliper EZ Reader.
(§10) % Inhibition=((Conversion%_max−Conversion%_sample)/(Conversion%_max−Conversion%_min))*100
(§11) Wherein: Conversion%_sample is the sample conversion rate reading; Conversion%_min: Mean value of negative control wells, representing the conversion rate reading of wells without enzymatic activity; Conversion%_max: Mean value of positive control wells, representing the conversion rate reading of wells without compound inhibition.
(§12) The dose-effect curve was fitted with concentration log value as X-axis and percentage inhibition rate as Y-axis. GraphPad Prism 5 analysis software was used for fitting Log (inhibitor) vs. response—Variable slope with the dose-effect curve to obtain IC50 value of enzymatic activity for each compound.
(§13) The calculation formula is as Y-Bottom+(Top-Bottom)/(1+10^((Log IC50−X)*HillSlope)).

For the next assay, the target named is IGF1R (Homo sapiens, UniProt P08069). Description: IGF1R kinase test (mobility variation analysis, Caliper EZ Reader). Particulars: kinase enzymatic activity, Table 1; read-out: EGFR IGF1R IC50. As for the experimental part:
as §1, §2
2. Preparation of compound concentration gradient: The test compound was tested with an initial concentration of 3000 nM (300 nM for some triple mutations and 100 nM for others), diluted in a 384 source plate (96-well plate for comparative compound 1 and compounds 1-38) to a 100% DMSO solution with 100-fold final concentration, and the compound is 3-fold diluted with Precision to 10 concentrations. A dispenser Echo 550 was used to transfer 250 nL 100-fold final concentration of the compound to the target plate OptiPlate-384F.
3. Prepare 2.5-fold final concentration (5-fold for comparative compound 1 and compounds 1-38) of kinase solution with 1×Kinase buffer. Following steps should also be carried out for comparative compound 1 and compounds 1-38: Add each prepared intermediate dilution compounds to the compound wells of 384-well plate respectively, and test the repeated wells of each concentration; add 5% DMSO of 5 plates into the negative control well and the positive control well respectively. Prepare 2.5-fold final concentration of kinase solution with 1×Kinase buffer.
as §4, §5, §6
7. Add 15 μL mixture of 5/3-fold (2.5-fold for comparative compound 1 and compounds 1-38) final concentration of ATP and substrate to start reaction.
as §7, §8, §9, §10, §11, §12, §13

The target in the next assay is EGFR WT (Homo sapiens, UniProt P00533). Description: EGFR WT kinase test (mobility variation analysis, Caliper EZ Reader). Particulars: kinase enzymatic activity, Table 1. As for the experimental part: as §1, §2, §3, §4, §5, §6, §7, §8, §9, §10, §11, §12, §13

IGF1R, sequence (P08069 31-1367, species assumed): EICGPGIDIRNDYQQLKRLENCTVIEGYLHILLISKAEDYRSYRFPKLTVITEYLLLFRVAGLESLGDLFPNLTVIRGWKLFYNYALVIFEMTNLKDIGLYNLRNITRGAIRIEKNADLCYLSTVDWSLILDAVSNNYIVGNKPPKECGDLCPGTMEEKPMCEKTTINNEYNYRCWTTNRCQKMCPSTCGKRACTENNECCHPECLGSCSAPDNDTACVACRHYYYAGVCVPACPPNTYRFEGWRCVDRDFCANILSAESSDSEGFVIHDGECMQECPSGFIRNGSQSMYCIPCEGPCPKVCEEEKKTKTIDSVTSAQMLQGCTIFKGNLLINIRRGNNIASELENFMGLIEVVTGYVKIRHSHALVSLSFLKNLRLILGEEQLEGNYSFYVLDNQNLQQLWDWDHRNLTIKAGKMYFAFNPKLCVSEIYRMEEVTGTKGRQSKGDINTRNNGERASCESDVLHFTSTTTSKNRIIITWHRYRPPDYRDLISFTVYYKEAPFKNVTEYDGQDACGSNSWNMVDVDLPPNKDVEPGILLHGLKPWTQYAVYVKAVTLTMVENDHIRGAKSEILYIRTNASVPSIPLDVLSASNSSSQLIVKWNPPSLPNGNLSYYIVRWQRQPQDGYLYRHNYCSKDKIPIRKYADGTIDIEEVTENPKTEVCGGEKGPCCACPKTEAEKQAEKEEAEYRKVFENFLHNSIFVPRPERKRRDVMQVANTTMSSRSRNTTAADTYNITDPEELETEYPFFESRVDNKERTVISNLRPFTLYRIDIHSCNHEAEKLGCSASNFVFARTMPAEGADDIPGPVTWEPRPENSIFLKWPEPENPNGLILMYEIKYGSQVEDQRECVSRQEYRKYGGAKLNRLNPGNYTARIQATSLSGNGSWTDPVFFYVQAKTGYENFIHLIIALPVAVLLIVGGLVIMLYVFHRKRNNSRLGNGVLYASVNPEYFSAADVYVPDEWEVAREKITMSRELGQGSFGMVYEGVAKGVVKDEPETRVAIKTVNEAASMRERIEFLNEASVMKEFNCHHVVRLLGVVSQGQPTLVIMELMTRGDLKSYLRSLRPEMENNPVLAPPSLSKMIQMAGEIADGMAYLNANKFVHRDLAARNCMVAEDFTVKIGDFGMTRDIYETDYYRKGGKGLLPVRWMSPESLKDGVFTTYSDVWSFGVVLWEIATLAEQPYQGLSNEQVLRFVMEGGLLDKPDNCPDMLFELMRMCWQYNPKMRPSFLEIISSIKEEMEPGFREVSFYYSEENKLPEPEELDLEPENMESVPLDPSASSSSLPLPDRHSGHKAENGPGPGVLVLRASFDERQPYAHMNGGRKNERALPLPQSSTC

Regarding `CCn1cc(-c2cc(Nc3ncc(Br)c(Nc4ccc(-c5cccc6cc[nH]c56)cc4P(C)(C)=O)n3)c(OC)cc2N2CCC(N3CCN(C)CC3)CC2)cn1` [Compound K-091, (2-((5-Bromo-2-((5-(1-ethyl-1H-pyrazol-4-yl)-2-methoxy-4-(4-(4-methylpiperazin-1-yl)piperidin-1-yl)phenyl)amino)pyrimidin-4-yl)amino)-5-(1H-indol-7-yl)phenyl)dimethylphosphine oxide], the negative logarithm of the IC50 (pIC50) against EGFRΔ19del/T790M/C797S was 9.10; on IGF1R, 6.55; against EGFR WT, 7.41.
Turning to “(2-((5-Chloro-2-((5-ethyl-2-methoxy-4-(4-(4-methylpiperazin-1-yl)piperidin-1-yl)phenyl)amino)pyrimidin-4-yl)amino)-5-(3-ethoxy-5-methylisoxazol-4-yl)phenyl)dimethylphosphine oxide [Compound K-061]”, the pIC50 against EGFRΔ19del/T790M/C797S is 8.80; on IGF1R, 6.05; against EGFR WT, 7.36.
On to `CCc1cc(Nc2ncc(Br)c(Nc3ccc(-c4cccc5cc[nH]c45)cc3P(C)(C)=O)n2)c(OC)cc1N1CCC(N2CCN(C)CC2)CC1` [Compound 52], for which the negative-log IC50 (pIC50) at EGFRΔ19del/T790M/C797S is 8.72; on IGF1R, 5.72; against EGFR WT it was 6.69.
At EGFRΔ19del/T790M/C797S, `CCn1cc(-c2cc(Nc3ncc(Br)c(Nc4ccc(-c5nn(C)c6ncccc56)cc4P(C)(C)=O)n3)c(OC)cc2N2CCC(N3CCN(C)CC3)CC2)cn1` [Compound K-102, (2-((5-Bromo-2-((5-(1-ethyl-1H-pyrazol-4-yl)-2-methoxy-4-(4-(4-methylpiperazin-1-yl)piperidin-1-yl)phenyl)amino)pyrimidin-4-yl)amino)-5-(1-methyl-1H-pyrazolo[3,4-b]pyridin-3-yl)phenyl)dimethylphosphine oxide] had a pIC50 of 9.52.
As to `CCc1cc(Nc2ncc(Cl)c(Nc3ccc(-c4cnccc4OC)cc3P(C)(C)=O)n2)c(OC)cc1N1CCC(N2CCN(C)CC2)CC1` [Compound 53, (2-((5-Chloro-2-((5-ethyl-2-methoxy-4-(4-(4-methylpiperazin-1-yl)piperidin-1-yl)phenyl)amino)pyrimidin-4-yl)amino)-5-(4-methoxypyridin-3-yl)phenyl)dimethylphosphine oxide], the negative-log IC50 (pIC50) was 9.22 at EGFRΔ19del/T790M/C797S, 5.96 at IGF1R and 7.19 at EGFR WT.
Taken in the same sequence, the figures for `CCc1cc(Nc2ncc(Br)c(Nc3ccc(-c4ncnn4C)cc3P(C)(C)=O)n2)c(OC)cc1N1CCC(N2CCN(C)CC2)CC1` [Compound 62, (2-((5-Bromo-2-((5-ethyl-2-methoxy-4-(4-(4-methylpiperazin-1-yl)piperidin-1-yl)phenyl)amino]pyrimidin-4-yl)amino)-5-(1-methyl-1H-1,2,4-triazol-5-yl)phenyl)dimethylphosphine oxide] were 9.10, 6.00 and 6.67.
Taken in the same sequence, the figures for `CCc1cc(Nc2ncc(Br)c(Nc3ccc(-c4cnn(C(F)F)n4)cc3P(C)(C)=O)n2)c(OC)cc1N1CCC(N2CCN(C)CC2)CC1` [Compound K-106, (2-((5-Bromo-2-((5-ethyl-2-methoxy-4-(4-(4-methylpiperazin-1-yl)piperidin-1-yl)phenyl)amino)pyrimidin-4-yl)amino)-5-(2-(difluoromethyl)-2H-1,2,3-triazol-4-yl)phenyl)dimethylphosphine oxide] were 9.30, 7.25 and 7.77.
Consider `CCOc1noc(C)c1-c1ccc(Nc2nc(Nc3cc(CC)c(N4CCC(N5CCN(C)CC5)CC4)cc3OC)ncc2Cl)c(P(C)(C)=O)c1` [Compound 58, (2-((5-Chloro-2-((5-ethyl-2-methoxy-4-(4-(4-methylpiperazin-1-yl)piperidin-1-yl)phenyl)amino)pyrimidin-4-yl)amino)-5-(3-ethoxy-5-methylisoxazol-4-yl)phenyl)dimethylphosphine oxide], for which the pIC50 at EGFRΔ19del/T790M/C797S was 8.43; on IGF1R, 6.56; against EGFR WT, 7.19.
On the same counts, the results for `CCc1cc(Nc2ncc(Cl)c(Nc3ccc(-c4ccc[nH]c4=O)cc3P(C)(C)=O)n2)c(OC)cc1N1CCC(N2CCN(C)CC2)CC1` [Compound K-092, 3-(4-((5-Chloro-2-((5-ethyl-2-methoxy-4-(4-(4-methylpiperazin-1-yl)piperidin-1-yl)phenyl)amino)pyrimidin-4-yl)amino)-3-(dimethylphosphoryl)phenyl)pyridin-2(1H)-one] are 9.10, 6.37 and 7.08.
In the case of `CCc1cc(Nc2ncc(Cl)c(Nc3ccc(-c4cn[nH]c4)cc3P(C)(C)=O)n2)c(OC)cc1N1CCC(N2CCN(C)CC2)CC1` [Compound 48, (2-((5-Chloro-2-((5-ethyl-2-methoxy-4-(4-(4-methylpiperazin-1-yl)piperidin-1-yl)phenyl)amino)pyrimidin-4-yl)amino)-5-(1H-pyrazol-4-yl)phenyl)dimethylphosphine oxide], the pIC50 on EGFRΔ19del/T790M/C797S was 9.52; at IGF1R, 6.95.
Consider `CCc1cc(Nc2ncc(Br)c(Nc3ccc(-c4cccc(N(C)C)n4)cc3P(C)(C)=O)n2)c(OC)cc1N1CCC(N2CCN(C)CC2)CC1` [Compound 71], for which the pIC50 is 8.89 at EGFRΔ19del/T790M/C797S, 6.15 at IGF1R and 7.26 against EGFR WT.
Consider `CCc1cc(Nc2ncc(Br)c(Nc3ccc(-c4ccn[nH]4)cc3P(C)(C)=O)n2)c(OC)cc1N1CCC(N2CCN(C)CC2)CC1` [Compound 39, (2-((5-Bromo-2-((5-ethyl-2-methoxy-4-(4-(4-methylpiperazin-1-yl)piperidin-1-yl)phenyl)amino)pyrimidin-4-yl)amino)-5-(1H-pyrazol-5-yl)phenyl)dimethylphosphine oxide], for which the values for the pIC50 on EGFRΔ19del/T790M/C797S, on IGF1R and against EGFR WT were 9.40, 6.86 and 7.74, respectively.
On the same counts, the results for `CCc1cc(Nc2ncc(Br)c(Nc3ccc(-c4ncsc4C)cc3P(C)(C)=O)n2)c(OC)cc1N1CCC(N2CCN(C)CC2)CC1` [Compound 60] are 9.22, 6.38 and 7.33.
On the same counts, the results for `CCc1cc(Nc2ncc(Br)c(Nc3ccc(-c4nccn4C4CC4)cc3P(C)(C)=O)n2)c(OC)cc1N1CCC(N2CCN(C)CC2)CC1` [Compound 69] are 8.40, 5.71 and 6.50.
On the same counts, the results for `CCc1cc(Nc2ncc(Cl)c(Nc3ccc(-c4cccc5ocnc45)cc3P(C)(C)=O)n2)c(OC)cc1N1CCC(N2CCN(C)CC2)CC1` [Compound K-052, (5-(Benzo[d]oxazol-4-yl)-2-((5-chloro-2-((5-ethyl-2-methoxy-4-(4-(4-methylpiperazin-1-yl)piperidin-1-yl)phenyl)amino)pyrimidin-4-yl)amino)phenyl)dimethylphosphine oxide] are 8.80, 6.05 and 7.36.
Consider `CCc1cc(Nc2ncc(Cl)c(Nc3ccc(-c4cnn5c4CC(C)(C)C5)cc3P(C)(C)=O)n2)c(OC)cc1N1CCC(N2CCN(C)CC2)CC1` [Compound 41, (2-((5-Chloro-2-((5-ethyl-2-methoxy-4-(4-(4-methylpiperazin-1-yl)piperidin-1-yl)phenyl)amino)pyrimidin-4-yl)amino)-5-(5,5-dimethyl-5,6-dihydro-tetrahydro-pyrrolo[1,2-b]pyrazol-3-)phenyl)dimethylphosphine oxide], for which the negative logarithm of the IC50 (pIC50) is 8.82 against EGFRΔ19del/T790M/C797S, 6.13 on IGF1R and 7.23 on EGFR WT.
Taken in the same sequence, the figures for `CCc1cc(Nc2ncc(Br)c(Nc3ccc(-c4cn(C)c5cccnc45)cc3P(C)(C)=O)n2)c(OC)cc1N1CCC(N2CCN(C)CC2)CC1` [Compound 42] were 8.91, 5.93 and 7.06.
Taken in the same sequence, the figures for `CCc1cc(Nc2ncc(Br)c(Nc3ccc(-n4cccn4)cc3P(C)(C)=O)n2)c(OC)cc1N1CCC(N2CCN(C)CC2)CC1` [Compound 49, (2-((5-Bromo-2-((5-ethyl-2-methoxy-4-(4-(4-methylpiperazin-1-yl)piperidin-1-yl)phenyl)amino)pyrimidin-4-yl)amino)-5-(1H-pyrazol-1-yl)phenyl)dimethylphosphine oxide] were 8.39, 5.56 and 6.38.

One may read the pIC50 as −log10 of the IC50, conventionally taken in molar units.
